Source: patent US11001561B2, “Pyrimidinone derivatives as SHP2 antagonists” (MERCK PATENT GMBH, priority 2019, dated 2021)
pIC50: −log10 of the molar value. Where two headings read alike, the source gives them in different places.

Tests used:
[1] = biological target: Full length SHP2 protein (Recombinant Human SHP-2) (Homo sapiens (Human), UniProt Q06124); assay: SHP2 biochemical assay (DiFMUP substrate, activating peptide IRSI_2pY); settings: for pIC50: read-out: SHP-2 biochemical assay IC50
Procedure: The inhibition of SHP2 by compounds of the invention was monitored using the surrogate substrate DiFMUP after protein activation by a peptide bearing two appropriately spaced phosphotyrosine. […] The generation of the DiFMU product by activated SHP2 was monitored through Fluorescence measurement with a PerkinElmer Envision reader. The inhibitor dose response curves were analyzed with Genedata Screener.

[2] = system: pERK1/2 in KYSE520 cells; assay: p-Erk cellular assay in KYSE520 (Mesoscale); type: cell-based; settings: read-out: pERK1/2 in Cell KYSE520 IC50
Procedure: p-Erk Cellular Assay in KYSE520: The effect of SHP2 inhibitors on pERK level was assessed using phospho-specific antibody using Mesoscale quantification platform. For measuring change in pERK levels using mesoscale, 30,000 cells of KYSE520 cells were plated in 96-well tissue culture treated plate in 175 μl volume of media. After an overnight incubation at 37° C., various SHP2 inhibitors were added in different concentration to each well maintaining duplicate wells across plates and incubated with compounds for 2 h at 37° C. followed by a wash with ice cold PBS buffer. The cells were then lysed in lysis buffer and processed and analyzed for p-ERK/ERK as per manufacturer's instructions (Mesoscale discovery, cat No. […]-3).

[3] = Pharmacokinetics in mouse (oral / intravenous); type: in vivo; settings: female CD1 mice; for clearance / Vd: mouse; for Vd: read-out: Vd ss
Procedure: Female CD1 mice (N=3) received a single oral (gavage) or a single intravenous (bolus) injection of compound. […] Consecutive blood samples were taken sub-lingually under isofluorane inhalation from animals after 0.083 (IV), 0.25, 0.5, 1, 2, 4, 6 and 24 h and were further processed to obtain plasma. Samples were protein precipitated and analysed by LC/MS/MS.

[4] = biological target: auto-activated mutant protein SHP2 E76K (Homo sapiens (Human), UniProt Q06124, E76K); assay: SHP2 active mutant E76K biochemical assay with and without activating peptide
Procedure: The inhibition of SHP2 by compounds of the invention was monitored using the surrogate substrate DiFMUP after protein activation by a peptide bearing two appropriately spaced phosphotyrosine. Full length SHP2 protein (Recombinant HumanSHP-2, E. coli derived Ser2Arg593, N-terminal 6His tag from R&D systems; 0.0.24 nM) was incubated with activating peptide, IRSI_2pY (New England Peptide, 140 nM) and DiFMUP (molecular probes, 80 uM) at RT in buffer (HEPES pH 7.2 60 mM, DDT 5 mM, KCl 75 mM, NaCl 75 mM, EDTA 1 mM, Tween 20 0.05%) in presence of compound (10 concentrations range, top concentration 50 μM) for 60 min. The generation of the DiFMU product by activated SHP2 was monitored through Fluorescence measurement with a PerkinElmer Envision reader. The inhibitor dose response curves were analyzed with Genedata Screener.

[5] = SHP-2 IC50 (nM) peptide, wild-type SHP-2, with activating peptide
[6] = activating peptide IRSI_2pY 140 nM, DiFMUP, 60 min
[7] = with activating peptide IRSI_2pY 140 nM, read-out: SHP-2 E76Z IC50 (nM) peptide
[8] = without activating peptide, read-out: SHP-2 E76Z IC50 (nM) No peptide
[9] = SHP-2 biochemical assay IC50 (μM), activating peptide IRSI_2pY 140 nM, DiFMUP, 60 min

auto-activated mutant protein SHP2 E76K, sequence (Q06124 whole entry E76K): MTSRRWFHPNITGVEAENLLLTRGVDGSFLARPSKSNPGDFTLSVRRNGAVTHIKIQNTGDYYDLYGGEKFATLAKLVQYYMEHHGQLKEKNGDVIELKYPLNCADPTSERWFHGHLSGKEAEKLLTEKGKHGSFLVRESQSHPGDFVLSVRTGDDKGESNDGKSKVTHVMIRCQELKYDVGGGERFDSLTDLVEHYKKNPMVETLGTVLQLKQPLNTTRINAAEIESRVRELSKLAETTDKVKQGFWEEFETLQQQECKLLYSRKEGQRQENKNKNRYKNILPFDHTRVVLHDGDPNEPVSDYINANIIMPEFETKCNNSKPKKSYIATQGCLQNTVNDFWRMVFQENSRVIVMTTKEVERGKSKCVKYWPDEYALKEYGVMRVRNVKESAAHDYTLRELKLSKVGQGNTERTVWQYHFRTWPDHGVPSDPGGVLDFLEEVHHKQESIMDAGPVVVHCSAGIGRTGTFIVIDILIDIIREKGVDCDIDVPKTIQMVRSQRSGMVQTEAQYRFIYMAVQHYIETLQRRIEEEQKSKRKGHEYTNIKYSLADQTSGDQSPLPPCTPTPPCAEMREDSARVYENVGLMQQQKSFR
Full length SHP2 protein (Recombinant Human SHP-2), sequence (Q06124 2-593): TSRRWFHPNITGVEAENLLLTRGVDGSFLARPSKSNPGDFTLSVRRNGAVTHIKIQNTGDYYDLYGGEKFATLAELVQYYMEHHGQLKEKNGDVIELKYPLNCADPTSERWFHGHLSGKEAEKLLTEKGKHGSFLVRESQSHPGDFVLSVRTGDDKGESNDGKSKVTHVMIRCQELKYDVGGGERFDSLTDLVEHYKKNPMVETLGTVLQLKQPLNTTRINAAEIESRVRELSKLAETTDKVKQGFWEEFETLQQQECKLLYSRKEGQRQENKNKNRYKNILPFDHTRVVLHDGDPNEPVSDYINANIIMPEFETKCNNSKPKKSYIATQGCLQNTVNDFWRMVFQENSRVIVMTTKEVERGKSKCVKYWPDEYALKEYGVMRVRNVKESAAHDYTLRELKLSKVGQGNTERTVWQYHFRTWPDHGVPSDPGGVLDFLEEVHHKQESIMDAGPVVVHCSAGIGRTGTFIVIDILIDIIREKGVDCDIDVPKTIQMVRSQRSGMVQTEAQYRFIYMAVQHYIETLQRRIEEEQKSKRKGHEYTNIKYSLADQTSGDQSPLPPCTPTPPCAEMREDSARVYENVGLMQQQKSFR

| Compound | pIC50 [1, 6] | pIC50 ([2]; Homo sapiens, KYSE-520, 2 h) | further results |
| --- | --- | --- | --- |
| Cc1c(N2CCC3(CC2)Oc2ccccc2[C@H]3N)nc(C)n(-c2cccc(Cl)c2Cl)c1=O (single isomer, unassigned) [Compound 81b] | 8.85 | 8.18 | IC50 [1, 5]: 0.3 nM; Fz [3]: 48%; clearance ([3]; plasma, intravenous): 2.5 mL/min/kg; Vd ([3]; plasma, intravenous): 0.68 L/kg; IC50 ([4]; SHP-2 E76Z IC50 (nM) No peptide, without activating peptide): 0.5 nM; IC50 ([4]; SHP-2 E76Z IC50 (nM) peptide, with activating peptide IRSI_2pY 140 nM): 1.1 nM |
| Cc1c(N2CCC3(CC2)Cc2ncccc2[C@H]3N)nc(C)n(-c2cccc(Cl)c2Cl)c1=O (single isomer, unassigned) [Compound 66a] | 7.14 |  | IC50 [1, 5]: 48 nM; IC50 [4, 7]: 200 nM; IC50 [4, 8]: 97 nM |
| Cc1c(F)ccc(-n2c(C)nc(N3CCC4(CC3)Cc3ccccc3[C@H]4N)c(C)c2=O)c1Cl [Compound 110, 6-[(1S)-1-amino-1,3-dihydrospiro[indene-2,4′-piperidin]-1′-yl]-3-(2-chloro-4-fluoro-3-methylphenyl)-2,5-dimethyl-3,4-dihydropyrimidin-4-one] | 8.70 | 8.15 |  |
| Cc1c(N2CCC3(CCC[C@H]3N)CC2)nc(C)n(-c2cccc(Cl)c2Cl)c1=O [Compound 67b, (3M)-6-[(1R)-1-amino-8-azaspiro[4.5]decan-8-yl]-3-(2,3-dichlorophenyl)-2,5-dimethyl-3,4-dihydropyrimidin-4-one] | 7.39 |  | pIC50 ([2]; 2 h): 6.70 |
| Cc1nc(N2CCC3(CC2)Cc2ccccc2[C@H]3N)cc(=O)n1-c1cccc(Cl)c1Cl (single isomer, unassigned) [Compound 119b] | 9.10 | 8.30 |  |
| Cc1nc(N2CCC3(CC2)CO[C@@H](C)[C@H]3N)cc(=O)n1-c1cccc(Cl)c1Cl (single isomer, unassigned) [Compound 3b] |  |  | Fz [3]: 85%; clearance ([3]; plasma, intravenous): 8 mL/min/kg; Vd ([3]; plasma, intravenous): 2.77 L/kg |
| Cc1c(N2CCC3(CC2)Oc2cnccc2[C@@H]3N)nc(C)n(-c2cccc(Cl)c2Cl)c1=O (single isomer, unassigned) [Compound 80b] |  |  | IC50 [1, 9]: > 10000 nM; pIC50 ([2]; 2 h): 4.80 |
| Cc1c(N2CCC3(CC2)Cc2ccccc2[C@H]3N)nc(C)n(-c2cccc(F)c2Cl)c1=O [Compound 112, 6-[(1S)-1-amino-1,3-dihydrospiro[indene-2,4′-piperidin]-1′-yl]-3-(2-chloro-3-fluorophenyl)-2,5-dimethyl-3,4-dihydropyrimidin-4-one] | 8.40 | 7.85 |  |
| Cc1nc(N2CCC3(CCC3N)CC2)cc(=O)n1-c1cccc(Cl)c1Cl (stereo not drawn) [Compound 35, 6-{1-amino-7-azaspiro[3.5]nonan-7-yl}-3-(2,3-dichlorophenyl)-2-methyl-3,4-dihydropyrimidin-4-one] | 6.25 | 6.22 |  |
| Cc1c(N2CCC3(CC2)Cc2ccccc2[C@H]3N)nc(C)n(-c2ccc(F)c(Cl)c2Cl)c1=O [Compound 109, 6-((1S)-1-amino-1,3-dihydrospiro[indene-2,4′-piperidin]-1′-yl]-3-(2,3-dichloro-4-fluorophenyl)-2,5-dimethyl-3,4-dihydropyrimidin-4-one] | 8.70 | 8.40 |  |
| COc1c(F)ccc(-n2c(C)nc(N3CCC4(CC3)Cc3ccccc3[C@H]4N)c(C)c2=O)c1F [Compound 105, 6-[(1S)-1-amino-1,3-dihydrospiro[indene-2,4′-piperidin]-1′-yl]-3-(2,4-difluoro-3-methoxyphenyl)-2,5-dimethyl-3,4-dihydropyrimidin-4-one] | 8.22 | 8.00 |  |
| CC1(N)CCN(c2cnc(-c3cccc(Cl)c3Cl)c(N)n2)CC1 [SHP-099, reference compound] |  |  | clearance ([3]; in vivo): 95 mL/min/kg; Vd ([3]; in vivo): 5 L/kg |
| [2H]C([2H])([2H])c1c(N2CCC3(CC2)CO[C@@H](C)[C@H]3N)nc(C)n(-c2cccc(Cl)c2Cl)c1=O (single isomer, unassigned) [Compound 63b] |  |  | IC50 [1, 9]: 15 nM; pIC50 ([2]; 2 h): 6.75 |
| Cc1c(N2CCC3(CC2)Cc2ccccc2[C@H]3N)nc(C)n(-c2ccc(F)c(F)c2Cl)c1=O [Compound 113, 6-[(1S)-1-amino-1,3-dihydrospiro[indene-2,4′-piperidin]-1′-yl)-3-(2-chloro-3,4-difluorophenyl)-2,5-dimethyl-3,4-dihydropyrimidin-4-one] | 8.22 | 7.82 |  |
| Cc1c(N2CCC3(CCC3N)CC2)nc(C)n(-c2cccc(Cl)c2Cl)c1=O (stereo not drawn) [Compound 82, 6-1-amino-7-azaspiro[3.5]nonan-7-yl-3-(2,3-dichlorophenyl)-2,5-dimethyl-3,4-dihydropyrimidin-4-one] | 6.25 | 5.18 |  |
| Cc1nc(N2CCC3(CCC[C@H]3N)CC2)cc(=O)n1-c1cccc(Cl)c1Cl [Compound 27, 6-{(R)-1-amino-8-azaspiro[4.5]decan-8-yl}-3-(2,3-dichlorophenyl)-2-methyl-3,4-dihydropyrimidin-4-one] | 7.29 | 6.62 |  |
| Cc1c(N2CCC3(CC2)CO[C@@H](C)[C@H]3N)nc(C)n(-c2cccc(Br)c2Cl)c1=O [Compound 95, 6-((3S,4S)-4-Amino-3-methyl-2-oxa-8-aza-spiro[4.5]dec-8-yl)-3-(3-bromo-2-chloro-phenyl)-2,5-dimethyl-3H-pyrimidin-4-one] | 7.57 | 6.22 |  |
| [2H]C([2H])([2H])c1c(N2CCC3(CC2)Cc2ccccc2[C@H]3N)nc(C)n(-c2cccc(Cl)c2Cl)c1=O [Compound 106, 6-[(1S)-1-amino-1,3-dihydrospiro[indene-2,4′-piperidin]-1′-yl]-3-(2,3-dichlorophenyl)-5-(2H3)methyl-2-methyl-3,4-dihydropyrimidin-4-one] |  | 8.00 | IC50 [1, 5]: 1.7 nM; IC50 [1, 9]: 6 nM; IC50 [4, 7]: 6.4 nM; IC50 [4, 8]: 3.5 nM |
| Cc1c(N2CCC3(CC2)Cc2ccccc2[C@H]3N)nc(C)n(-c2cccc(Cl)c2Cl)c1=O (atropisomer, axis not shown) [Compound 74b, (3P)-6-[(1S)-1-amino-1,3-dihydrospiro[indene-2,4′-piperidin]-1′-yl]-3-(2,3-dichlorophenyl)-2,5-dimethyl-3,4-dihydropyrimidin-4-one] |  |  | IC50 [1, 9]: 26 nM; pIC50 ([2]; 2 h): 6.20 |
| Nc1nc(N2CCC3(CC2)Cc2ccccc2[C@H]3N)cc(=O)n1-c1cccc(Cl)c1Cl [Compound 118, 2-amino-6-[(3S)-3-amino-1,3-dihydrospiro[indene-2,4′-piperidin]-1′-yl]-3-(2,3-dichlorophenyl)-3,4-dihydropyrimidin-4-one] | 7.80 | 7.29 |  |
| Cc1c(N2CCC3(CC2)Oc2ncccc2[C@@H]3N)nc(C)n(-c2cccc(Cl)c2Cl)c1=O [Compound 79b, (3M)-6-[(3S)-3-amino-3H-spiro[furo[2,3-b]pyridine-2,4′-piperidin]-1′-yl]-3-(2,3-dichlorophenyl)-2,5-dimethylpyrimidin-4-one] |  | 6.99 | IC50 [1, 9]: 6 nM |
| Cc1c(N2CCC3(CC2)CO[C@@H](C)[C@H]3N)nc(N)n(-c2cccc(Cl)c2Cl)c1=O [Compound 116, 2-Amino-6-((3S,4S)-4-amino-3-methyl-2-oxa-8-aza-spiro[4.5]dec-8-yl)-3-(2,3-dichloro-phenyl)-5-methyl-3H-pyrimidin-4-one] | 6.70 | 5.66 |  |
| Cc1nc(N2CCC3(CCC[C@H]3N)CC2)cc(=O)n1-c1cccc(Cl)c1Cl (single isomer, unassigned) [Compound 62b] |  | 6.28 | IC50 [1, 9]: 81 nM |
| Cc1nc(N2CCC(N)(CCO)CC2)cc(=O)n1-c1cccc(Cl)c1Cl [Compound 26, 6-[4-amino-4-(2-hydroxyethyl)piperidin-1-yl]-3-(2,3-dichlorophenyl)-2-methyl-3,4-dihydropyrimidin-4-one] | 6.42 | 5.64 |  |
| Cc1c(N2CCC3(CCC[C@H]3N)CC2)nc(N)n(-c2cccc(Cl)c2Cl)c1=O (single isomer, unassigned) [Compound 78d] |  | 5.88 | IC50 [1, 9]: 190 nM |
| Cc1c(F)ccc(-n2c(C)nc(N3CCC4(CC3)CO[C@@H](C)[C@H]4N)c(C)c2=O)c1Cl [Compound 103, 6-((3S,4S)-4-Amino-3-methyl-2-oxa-8-aza-spiro[4.5]dec-8-yl)-3-(2-chloro-4-fluoro-3-methyl-phenyl)-2,5-dimethyl-3H-pyrimidin-4-one] | 7.17 | 5.56 |  |
| Cc1c(N2CCC3(CC2)CO[C@@H](C)[C@H]3N)nc(C)n(-c2cccc(F)c2Cl)c1=O [Compound 96, 6-((3S,4S)-4-Amino-3-methyl-2-oxa-8-aza-spiro[4.5]dec-8-yl)-3-(2-chloro-3-fluoro-phenyl)-2,5-dimethyl-3H-pyrimidin-4-one] | 6.82 | 5.70 |  |
